From patent US20040086995A1, “Beta1, 4-N-Acetylgalactosaminyltransferases, nucleic acids and methods of use thereof” (priority 2002, published 2004) come the findings set out here.

The target in test [1] is T1, SH-Ceβ4GalNAcT (Caenorhabditis elegans, UniProt Q9GUM2).
T1 construct: the catalytic domain of the Ceβ4GalNAcT (beginning at K34, the first amino acid after the transmembrane domain); signal peptide (from vector pcDNA3.1(+)-TH) (N); made in house; host or cells: CHO-Lec8 (and CHO-Lec2) cells, stably transfected; enzyme captured from the culture medium on HPC4-UltraLink beads
In words: β4GalNAcT assay, acceptor specificity. It is filed as biochemical, C. elegans. On the procedure: (§1) Purification of SH-C.E.β4GalNAcT—Medium containing SH-Ceβ4GalNAcT was centrifuged at 1,500×g for 5 min to remove cellular debris, and then incubated with HPC4-UltraLink beads (5 mg HPC4 antibody per ml of beads; 0.1 ml of beads per ml of medium) for one hour at room temperature on a rotating platform. The beads were collected by centrifugation at 600×g for 3 min, and washed three times with 10 ml of 100 mM sodium cacodylate pH 7.0, 2 mM CaCl2. The beads were then resuspended in the same buffer with the addition of 20 mM MnCl2, and used as the enzyme source. For Western blot analysis, the bound material was released by incubating the beads in a buffer of 50 mM sodium cacodylate pH 7.0, 20 mM EDTA for 10 min at room temperature, then collecting the supernatant.
β4GalNAcT assays—Standard assays were performed essentially as described previously (40) in a […] reaction mixture containing […] sodium cacodylate pH 7.2, 12.5 nmol UDP-[^3H]GalNAc (2.5 Ci/mol), […] MnCl2, […] ATP, […] Triton X-100, […] beads and acceptor substrate, containing 25 nmol of terminal GlcNAc at the non-reducing end unless otherwise indicated. Control assays lacking the acceptor substrate were carried out to correct for incorporation into endogenous acceptors, and all assays were carried out in duplicate. […] The isolated products were assayed for incorporation of radioactivity by liquid scintillation.

In test [2] the target is T1, SH-Ceβ4GalNAcT. In words: β4GalNAcT assay, effect of α-lactalbumin on acceptor use. The class given is biochemical, C. elegans. The conditions noted are these: for Relative activity (%): UDPGalNAc 0.5 mM, GlcNAc 1 mM or Glc 30 mM. How it is done:
as §1
(§2) β4GalNAcT assays—Standard assays were performed essentially as described previously (40) in a […] reaction mixture containing […] sodium cacodylate pH 7.2, 12.5 nmol UDP-[^3H]GalNAc (2.5 Ci/mol), […] MnCl2, […] ATP, […] Triton X-100, […] beads and acceptor substrate, containing 25 nmol of terminal GlcNAc at the non-reducing end unless otherwise indicated. Control assays lacking the acceptor substrate were carried out to correct for incorporation into endogenous acceptors, and all assays were carried out in duplicate. After incubation at 37° C. for 180 min the reaction was stopped. When oligosaccharides or glycopeptides were the acceptor, the labeled product was separated from unincorporated label by chromatography on a 1-ml column of Dowex 1-X8 (Cl^−-form) according to Easton et al., (44). When oligosaccharide acceptors with hydrophobic aglycon (pNP) were used as the acceptor, the product was isolated using Sep-pak C-18 cartridges (Waters) as described (45). The isolated products were assayed for incorporation of radioactivity by liquid scintillation.

For test [3], the target named is T1, SH-Ceβ4GalNAcT. The test is described as follows: β4GalNAcT assay, sugar nucleotide (donor) specificity. It is filed as biochemical, C. elegans. The conditions noted are these: for Relative activity (%): acceptor GlcNAcβ-S-pNP 1 mM, donor 0.5 mM, enzyme on HPC4-beads, 100% = UDP-GalNAc. How it is done:
as §1, §2

The target of test [4] is SH-Ceβ4GalNAcT (soluble, HPC4-epitope tagged form of C. elegans UDPGalNAc:GlcNAcβ-R β1,4-N-acetylgalactosaminyltransferase, encoded by Y73E7A.7) (C. elegans). In words: cell-based or functional assay.
Chain of SH-Ceβ4GalNAcT (soluble, HPC4-epitope tagged form of C. elegans UDPGalNAc:GlcNAcβ-R β1,4-N-acetylgalactosaminyltransferase, encoded by Y73E7A.7) (C. elegans) (Q9GUM2 34-383): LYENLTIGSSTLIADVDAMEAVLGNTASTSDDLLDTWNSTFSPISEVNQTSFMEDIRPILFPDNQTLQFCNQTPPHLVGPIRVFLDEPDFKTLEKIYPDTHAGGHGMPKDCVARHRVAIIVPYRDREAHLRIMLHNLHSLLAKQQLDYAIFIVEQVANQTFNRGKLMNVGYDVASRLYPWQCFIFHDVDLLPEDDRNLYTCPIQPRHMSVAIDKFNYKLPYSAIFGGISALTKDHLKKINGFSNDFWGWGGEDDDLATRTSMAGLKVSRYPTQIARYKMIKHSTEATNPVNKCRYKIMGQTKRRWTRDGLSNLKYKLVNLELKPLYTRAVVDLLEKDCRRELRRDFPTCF

T1 sequence (Q9GUM2 30-383 limits assumed): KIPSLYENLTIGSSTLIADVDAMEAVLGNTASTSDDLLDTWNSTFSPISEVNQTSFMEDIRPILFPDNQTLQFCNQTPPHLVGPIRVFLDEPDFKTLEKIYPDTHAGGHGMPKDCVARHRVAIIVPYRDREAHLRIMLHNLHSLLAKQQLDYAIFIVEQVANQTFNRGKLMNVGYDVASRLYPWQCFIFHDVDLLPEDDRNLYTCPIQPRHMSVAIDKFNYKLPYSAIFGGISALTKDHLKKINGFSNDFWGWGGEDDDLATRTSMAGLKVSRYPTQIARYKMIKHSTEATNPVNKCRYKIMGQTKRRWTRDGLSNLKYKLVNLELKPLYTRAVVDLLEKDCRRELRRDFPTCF

Turning to `CC(=O)N[C@@H]1[C@@H](O)[C@H](O)[C@@H](CO)O[C@H]1O` [Acceptor 9, GlcNAc], the “utilization as acceptor substrate” value at SH-Ceβ4GalNAcT [1] is on record as “efficiently utilized”. For the same molecule, the entries for the “Relative activity (%)” value on SH-Ceβ4GalNAcT [2] (with a-Lactalbumin 5 mg/ml) and on SH-Ceβ4GalNAcT [2] (without a-Lactalbumin) were 40% and 100%, respectively.
Take `OC[C@H]1OC(O)[C@H](O)[C@@H](O)[C@@H]1O` (stereo partly drawn) [Glc]: the “Relative activity (%)” value at SH-Ceβ4GalNAcT [2] (with a-Lactalbumin 5 mg/ml) is recorded as 6%; at SH-Ceβ4GalNAcT [2] (without a-Lactalbumin) it was 3%.
In the case of `CC(=O)N[C@H]1[C@@H](OP(=O)(O)OP(=O)(O)OC[C@H]2O[C@@H](n3ccc(=O)[nH]c3=O)[C@H](O)[C@@H]2O)O[C@H](CO)[C@H](O)[C@@H]1O` [UDP-GalNAc], on SH-Ceβ4GalNAcT [3], the “utilization as nucleotide-sugar donor” value was “efficiently utilized” and the “Relative activity (%)” value was 100%.
Turning to `CC(=O)N[C@H]1[C@@H](OP(=O)(O)OP(=O)(O)OC[C@H]2O[C@@H](n3ccc(=O)[nH]c3=O)[C@H](O)[C@@H]2O)O[C@H](CO)[C@@H](O)[C@@H]1O` [UDP-GlcNAc], at SH-Ceβ4GalNAcT [3], the “utilization as nucleotide-sugar donor” value is reported as “did not significantly utilize” and the “Relative activity (%)” value was determined as 0.7%.
Regarding α-lactalbumin, in test [4], the Relative activity (%) of SH-Ceβ4GalNAcT with Glc (30 mM) as acceptor in the presence of a-lactalbumin (5 mg/ml); 3 without it was 6% and the Relative activity (%) of SH-Ceβ4GalNAcT with GlcNAc (1 mM) as acceptor in the presence of a-lactalbumin (5 mg/ml); 100 without it came to 40%.

B1: a-lactalbumin: modifier protein expressed in lactating mammary glands, associates with β4GalT I and switches its acceptor specificity (protein, UniProt P00709 20-142, looked up)
Alpha-lactalbumin: KQFTKCELSQLLKDIDGYGGIALPELICTMFHTSGYDTQAIVENNESTEYGLFQISNKLWCKSSQVPQSRNICDISCDKFLDDDITDDIMCAKKILDIKGIDYWLAHKALCTEKLEQWLCEKL
On to B1, for which, in the test with SH-Ceβ4GalNAcT [2], the “effect of α-lactalbumin on acceptor specificity” value was “did not induce SH-Ceβ4GalNAcT to utilize Glc as an acceptor instead of GlcNAc”.
